According to ChEMBL document CHEMBL1201862, “PubChem BioAssay data set” (2004):
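These data come from cells grown in 96-well plates and exposed to compound for 48 hours at five concentrations. GI50 = concentration required for 50% inhibition of growth.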 The source made the active and inactive calls. Cut-off read from the data, not from the text of the source: active = GI50 up to about 1.1 µM and inactive = higher.

Experiments:
Test in all cases: NCI tumour cell line growth inhibition, 48 h
TK-10 = test system: TK-10
HCT-116 = test system: HCT-116
OVCAR-8 = test system: OVCAR-8
LXFL 529 = test system: LXFL 529
LOX IMVI = test system: LOX IMVI
SK-MEL-5 = test system: SK-MEL-5
CCRF-CEM = test system: CCRF-CEM
MOLT-4 = test system: MOLT-4
A498 = test system: A498
OVCAR-4 = test system: OVCAR-4
SW-620 = test system: SW-620
HL-60 = test system: HL-60
Malme-3M = test system: Malme-3M
OVCAR-5 = test system: OVCAR-5
NCI-H226 = test system: NCI-H226
ACHN = test system: ACHN

SMILES	GI50 (TK-10)	GI50 (HCT-116)	GI50 (OVCAR-8)	GI50 (LXFL 529)	GI50 (LOX IMVI)	GI50 (SK-MEL-5)	GI50 (CCRF-CEM)	GI50 (MOLT-4)	GI50 (A498)	GI50 (OVCAR-4)	GI50 (SW-620)	GI50 (HL-60)	GI50 (Malme-3M)	GI50 (OVCAR-5)	GI50 (NCI-H226)	GI50 (ACHN)
Cc1c2ccncc2c(C)c2c1[nH]c1ccc(OC(C)(C)C)cc12	4.88 µM (inactive)	1.67 µM (inactive)	2.51 µM (inactive)	2.23 µM (inactive)	2.24 µM (inactive)	2.14 µM (inactive)	2.07 µM (inactive)	1.67 µM (inactive)	12.2 µM (inactive)	1.98 µM (inactive)	2.14 µM (inactive)	1.81 µM (inactive)	1.77 µM (inactive)	11.7 µM (inactive)	3.17 µM (inactive)	–
NC(CCCNCc1ccccc1)C(=O)O (centres undefined)	> 100 µM (inactive)	> 100 µM (inactive)	> 100 µM (inactive)	> 100 µM (inactive)	> 100 µM (inactive)	> 100 µM (inactive)	> 100 µM (inactive)	> 100 µM (inactive)	> 100 µM (inactive)	> 100 µM (inactive)	> 100 µM (inactive)	> 100 µM (inactive)	> 100 µM (inactive)	–	> 100 µM (inactive)	> 100 µM (inactive)
CCc1ccc(Cc2ccc(CC)c(NC(=O)C(=O)Cc3nc4ccccc4nc3C)c2CC)c(CC)c1NC(=O)C(=O)Cc1nc2ccccc2nc1C	> 100 µM (inactive)	52.5 µM (inactive)	> 100 µM (inactive)	54.1 µM (inactive)	> 100 µM (inactive)	> 100 µM (inactive)	42.7 µM (inactive)	40.6 µM (inactive)	> 100 µM (inactive)	72.3 µM (inactive)	> 100 µM (inactive)	> 100 µM (inactive)	81.3 µM (inactive)	> 100 µM (inactive)	–	61.2 µM (inactive)
COc1ccc(C(=O)C=C2NCCN2)cc1	> 100 µM (inactive)	> 100 µM (inactive)	> 100 µM (inactive)	> 100 µM (inactive)	> 100 µM (inactive)	> 100 µM (inactive)	> 100 µM (inactive)	> 100 µM (inactive)	> 100 µM (inactive)	> 100 µM (inactive)	> 100 µM (inactive)	> 100 µM (inactive)	> 100 µM (inactive)	> 100 µM (inactive)	> 100 µM (inactive)	> 100 µM (inactive)
CN(C)/N=N/c1c[nH]nc1C(N)=O	> 100 µM (inactive)	> 100 µM (inactive)	> 100 µM (inactive)	> 100 µM (inactive)	53.1 µM (inactive)	> 100 µM (inactive)	> 100 µM (inactive)	> 100 µM (inactive)	> 100 µM (inactive)	> 100 µM (inactive)	> 100 µM (inactive)	> 100 µM (inactive)	> 100 µM (inactive)	> 100 µM (inactive)	> 100 µM (inactive)	76.7 µM (inactive)
O=C(O)c1cc(S(=O)(=O)N/N=C\c2c3ccccc3[n+]([O-])c3ccccc23)ccc1O	17.8 µM (inactive)	7.55 µM (inactive)	12.7 µM (inactive)	12.2 µM (inactive)	8 µM (inactive)	11.7 µM (inactive)	8.57 µM (inactive)	3.8 µM (inactive)	14.1 µM (inactive)	5.18 µM (inactive)	11.3 µM (inactive)	4.07 µM (inactive)	17.7 µM (inactive)	30.7 µM (inactive)	26.7 µM (inactive)	18.6 µM (inactive)
CCOC(=O)C(Cc1ccccc1)NC(=O)c1nc[nH]c1/N=N/N(C)C (centres undefined)	> 10 µM (inactive)	> 100 µM (inactive)	> 100 µM (inactive)	> 100 µM (inactive)	> 100 µM (inactive)	> 100 µM (inactive)	> 100 µM (inactive)	> 100 µM (inactive)	> 100 µM (inactive)	> 100 µM (inactive)	> 100 µM (inactive)	> 100 µM (inactive)	> 100 µM (inactive)	> 100 µM (inactive)	> 100 µM (inactive)	> 100 µM (inactive)
COC(=O)C1=C(C(=O)OC)C2(CCCCCC2=O)OC1=O (centres undefined)	> 100 µM (inactive)	> 100 µM (inactive)	> 100 µM (inactive)	> 100 µM (inactive)	–	> 100 µM (inactive)	> 100 µM (inactive)	> 100 µM (inactive)	> 100 µM (inactive)	> 100 µM (inactive)	> 100 µM (inactive)	> 100 µM (inactive)	> 100 µM (inactive)	> 100 µM (inactive)	> 100 µM (inactive)	> 100 µM (inactive)
Cc1cc(C)nc(NS(=O)(=O)c2ccc(Nc3c4ccccc4nc4c(C(=O)Nc5ccc(S(=O)(=O)Nc6cc(C)on6)cc5)ccc(Cl)c34)cc2)n1	76 µM (inactive)	17.7 µM (inactive)	26.4 µM (inactive)	18.5 µM (inactive)	22.2 µM (inactive)	–	21.8 µM (inactive)	19.5 µM (inactive)	17.2 µM (inactive)	28.6 µM (inactive)	–	–	28.1 µM (inactive)	18.7 µM (inactive)	–	36.2 µM (inactive)
O=C1c2ccccc2C(=O)C1C(c1ccc(F)cc1)C1C(=O)c2ccccc2C1=O	> 100 µM (inactive)	> 100 µM (inactive)	> 100 µM (inactive)	> 100 µM (inactive)	25.9 µM (inactive)	> 100 µM (inactive)	43 µM (inactive)	59.4 µM (inactive)	–	> 100 µM (inactive)	> 100 µM (inactive)	37.8 µM (inactive)	> 100 µM (inactive)	> 100 µM (inactive)	> 100 µM (inactive)	> 100 µM (inactive)
N#CC1(CCCCl)CCCCC1	> 100 µM (inactive)	> 100 µM (inactive)	> 100 µM (inactive)	> 100 µM (inactive)	> 100 µM (inactive)	> 100 µM (inactive)	> 100 µM (inactive)	> 100 µM (inactive)	> 100 µM (inactive)	–	> 100 µM (inactive)	> 100 µM (inactive)	> 100 µM (inactive)	> 100 µM (inactive)	–	> 100 µM (inactive)
O=C(O)CCNCCCCNCCC(=O)O	> 100 µM (inactive)	> 100 µM (inactive)	> 100 µM (inactive)	> 100 µM (inactive)	> 100 µM (inactive)	> 100 µM (inactive)	> 100 µM (inactive)	> 100 µM (inactive)	> 100 µM (inactive)	> 100 µM (inactive)	> 100 µM (inactive)	> 100 µM (inactive)	> 100 µM (inactive)	> 100 µM (inactive)	> 100 µM (inactive)	> 100 µM (inactive)
CC(=O)OCC1OC(OC2CC3C(C)(C)C(O)CC[C@]3(C)C3CCC45CC4(CC[C@H]5C(C)CC(O)C4OC4(C)C)[C@]23C)C(O)C(O)C1O (some centres undefined)	8.73 µM (inactive)	9.14 µM (inactive)	6.89 µM (inactive)	5.83 µM (inactive)	5.2 µM (inactive)	3.1 µM (inactive)	1.56 µM (inactive)	0.701 µM (active)	34.5 µM (inactive)	8.73 µM (inactive)	7.98 µM (inactive)	0.973 µM (active)	8.97 µM (inactive)	9.12 µM (inactive)	8.95 µM (inactive)	8.63 µM (inactive)
CC(=O)OC1CC2C(C)(C)C(=O)C=C[C@]2(C)C2CCC3(C)C(=CCC3[C@H](CO)C[C@H](O)C(=O)C(C)(C)O)[C@]12C (some centres undefined)	26.5 µM (inactive)	30.3 µM (inactive)	17.3 µM (inactive)	42.4 µM (inactive)	18.2 µM (inactive)	19 µM (inactive)	17.9 µM (inactive)	22.6 µM (inactive)	16.4 µM (inactive)	59.8 µM (inactive)	21.1 µM (inactive)	19.5 µM (inactive)	14.7 µM (inactive)	31 µM (inactive)	20.6 µM (inactive)	17.3 µM (inactive)
Clc1ccc(C2SCc3nc4ccccc4n32)c(Cl)c1 (centres undefined)	14.4 µM (inactive)	14 µM (inactive)	16.9 µM (inactive)	11.9 µM (inactive)	15.3 µM (inactive)	7.93 µM (inactive)	12.6 µM (inactive)	14.1 µM (inactive)	15 µM (inactive)	–	9.16 µM (inactive)	8.22 µM (inactive)	17.7 µM (inactive)	16.2 µM (inactive)	14.8 µM (inactive)	15 µM (inactive)
CCOP(=O)(OCC)C(C(=O)OC)C(=O)C(=O)Nc1ccc(Cl)cc1Cl (centres undefined)	> 100 µM (inactive)	> 100 µM (inactive)	> 100 µM (inactive)	> 100 µM (inactive)	> 100 µM (inactive)	> 100 µM (inactive)	> 100 µM (inactive)	> 100 µM (inactive)	> 100 µM (inactive)	> 100 µM (inactive)	> 100 µM (inactive)	> 100 µM (inactive)	> 100 µM (inactive)	> 100 µM (inactive)	> 100 µM (inactive)	> 100 µM (inactive)
O=C(Nc1cc(Cl)c(Cl)cc1Cl)C(=O)C(C(=O)c1ccccc1)C1OC(=O)c2ccccc21 (centres undefined)	> 100 µM (inactive)	> 100 µM (inactive)	> 100 µM (inactive)	> 100 µM (inactive)	> 100 µM (inactive)	–	> 100 µM (inactive)	> 100 µM (inactive)	> 100 µM (inactive)	> 100 µM (inactive)	> 100 µM (inactive)	> 100 µM (inactive)	> 100 µM (inactive)	> 100 µM (inactive)	> 100 µM (inactive)	> 100 µM (inactive)
CCCCCCCCCCn1cccc1/C=C/c1ccc(/C=C/c2cccn2CCCCCCCCCC)cc1	> 100 µM (inactive)	> 100 µM (inactive)	> 100 µM (inactive)	> 100 µM (inactive)	> 100 µM (inactive)	> 100 µM (inactive)	> 100 µM (inactive)	–	> 100 µM (inactive)	> 100 µM (inactive)	> 100 µM (inactive)	> 100 µM (inactive)	> 100 µM (inactive)	> 100 µM (inactive)	> 100 µM (inactive)	> 100 µM (inactive)
